Results taken from patent US7683034B2, “Use of enzyme inhibitors of aminopeptidase N and/or dipeptidylpeptidase IV” (IMTM GmbH, priority 2002, dated 2010).

Tested on: immortalized human sebaceous cell line SZ95
Test: Inhibition of DNA synthesis (3[H]-thymidine incorporation) of SZ95 sebaceous cells
Type: cell-based
Conditions: 48 h incubation with inhibitor, then 6 h 3[H]-methyl-thymidine incorporation; dose-dependent (FIG. 3)
Description: SZ95 cells were 48 h incubated with the above-mentioned inhibitors and subsequently the DNA synthesis was determined by the measurement of the ^ 3[H]-Thymidine incorporation as described in Reinhold et al. (Reinhold, D. et al.: Inhibitors of dipeptidyl peptidase IV induce secretion of transforming growth factor β1 in PWM-stimulated PBMNC and T-cells; Immunology, 1997, 91; 354-360).
The cells were 48 h incubated with inhibitors in the above-mentioned concentrations. Subsequently ^3[H]-Methyl-thymidin was added to the culture medium. After 6 further hours the amount of ^3[H]-Thymidine incorporated in the DNA was measured.

Row | SMILES | DNA synthesis of the immortalized human sebaceous cell line SZ95
1 | N[C@@H](CCCCNC(=O)OCc1ccc([N+](=O)[O-])cc1)C(=O)N1CCSC1 [Lys[Z(NO2)]-thiazolidide] | inhibited
2 | CCCCC[C@H](CC(=O)NO)C(=O)N[C@H](C(=O)N1CCC[C@H]1CO)C(C)C [actinonin] | inhibited
